Our source for the TGI values is PubChem BioAssay (NCI).

Test systems include 786-0 renal; A549 NSCLC; HCT-116 colon; HCT-15 colon; HOP-62 NSCLC; HS 578T breast; K-562 leukemia; MALME-3M melanoma; NCI-H23 lung; OVCAR-3 ovarian; OVCAR-5 ovarian; OVCAR-8 ovarian; RXF 393 renal; SF-268 CNS; SF-295 CNS; SK-MEL-28 melanoma; UACC-62 melanoma; SK-OV-3 ovarian; HCC-2998 colon.
Holding throughout (assay): NCI tumour cell line growth inhibition, 48 h

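These data come from cells grown in 96-well plates and exposed to compound for 48 hours at five concentrations. TGI is the concentration that stops growth completely.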

On to `Cc1ccc2c(=O)c(-c3nnc(NC4CCCCC4)s3)c[nH]c2n1`, for which the TGI with 786-0 renal, in the assay on A549 NSCLC, with HCT-116 colon, with HCT-15 colon, in the assay on HOP-62 NSCLC and with HS 578T breast was greater than 100 µM each time. Also, the TGI in the assay with K-562 leukemia, with MALME-3M melanoma, in the assay with NCI-H23 lung, in the assay with OVCAR-3 ovarian, with OVCAR-5 ovarian and with OVCAR-8 ovarian was greater than 100 µM throughout. Moreover, the TGI in the assay with RXF 393 renal, in the assay on SF-268 CNS, in the assay with SF-295 CNS, with SK-MEL-28 melanoma and in the assay on UACC-62 melanoma was greater than 100 µM throughout.

On to `Cc1ccc(C)n2c1nc1cc3ccccc3cc12`, for which the TGI in the assay with 786-0 renal, in the assay on A549 NSCLC, in the assay on HCT-116 colon, in the assay with HCT-15 colon, in the assay with HOP-62 NSCLC and in the assay on HS 578T breast was greater than 100 µM each time. For the same compound, the TGI with K-562 leukemia, in the assay with MALME-3M melanoma, with NCI-H23 lung, with OVCAR-3 ovarian, in the assay with OVCAR-5 ovarian and in the assay on OVCAR-8 ovarian was greater than 100 µM throughout. In addition, the TGI in the assay on RXF 393 renal is greater than 100 µM; in the assay with SF-268 CNS, greater than 100 µM; in the assay on SF-295 CNS, greater than 100 µM; with SK-MEL-28 melanoma it was greater than 100 µM; with SK-OV-3 ovarian, greater than 100 µM; in the assay on UACC-62 melanoma, 57.1 µM.

As to `O=c1[nH]c2ccc(Cl)cc2o1`, the TGI in the assay with 786-0 renal, in the assay on A549 NSCLC, in the assay with HCT-116 colon, in the assay with HCT-15 colon, in the assay with HOP-62 NSCLC and in the assay on HS 578T breast was greater than 100 µM throughout. In addition, the TGI in the assay with K-562 leukemia, in the assay with MALME-3M melanoma, in the assay with NCI-H23 lung, in the assay on OVCAR-3 ovarian, with OVCAR-5 ovarian and in the assay on OVCAR-8 ovarian was greater than 100 µM in each case. In addition, the TGI in the assay with RXF 393 renal, in the assay on SF-268 CNS, in the assay on SF-295 CNS, with SK-OV-3 ovarian and in the assay on UACC-62 melanoma was greater than 100 µM each time.

Turning to `CC(=O)N1C(=O)c2cc3ccccc3cc21`, the TGI in the assay on 786-0 renal, with A549 NSCLC, with HCC-2998 colon, in the assay on HCT-116 colon, in the assay with HCT-15 colon and with HOP-62 NSCLC was greater than 100 µM each time. The TGI in the assay on HS 578T breast, in the assay with K-562 leukemia, in the assay on NCI-H23 lung, in the assay on OVCAR-5 ovarian, in the assay with OVCAR-8 ovarian and in the assay on SF-268 CNS was greater than 100 µM throughout. In addition, the TGI with SK-MEL-28 melanoma, with SK-OV-3 ovarian and with UACC-62 melanoma was greater than 100 µM each time.

With `Cc1ccc(C(C)C)c(OCC(=O)N/N=C/c2c[nH]c3ccc(Br)cc23)c1`, the TGI with 786-0 renal amounted to 12.6 µM; with A549 NSCLC, 12.5 µM; with HCT-116 colon, 11 µM; with HCT-15 colon it was 14.9 µM; in the assay with HOP-62 NSCLC, 22 µM; in the assay with HS 578T breast it was 20.2 µM. Moreover, the TGI with K-562 leukemia came out at 11.4 µM; in the assay on MALME-3M melanoma, 21.8 µM; with NCI-H23 lung, 14.2 µM; with OVCAR-3 ovarian, 5.92 µM; in the assay with OVCAR-5 ovarian, 17.6 µM; in the assay on OVCAR-8 ovarian, 15 µM. The TGI in the assay with RXF 393 renal is 3.42 µM; in the assay on SF-268 CNS, 23.9 µM; in the assay on SF-295 CNS, 10.7 µM; in the assay with SK-MEL-28 melanoma, 21.8 µM; in the assay with SK-OV-3 ovarian it was 12.7 µM; in the assay on UACC-62 melanoma, 8.92 µM.

As for `C1=Nc2ccc(cc2)-c2ccc(cc2)N=Cc2ccc(cc2)OCc2cccc(n2)COc2ccc1cc2`, the TGI with 786-0 renal is greater than 100 µM; in the assay with A549 NSCLC, greater than 100 µM; in the assay on HCT-116 colon, greater than 100 µM; with HCT-15 colon, greater than 100 µM; in the assay with HOP-62 NSCLC, greater than 100 µM; in the assay with HS 578T breast, 73.2 µM. The TGI in the assay with K-562 leukemia, in the assay with MALME-3M melanoma, in the assay with NCI-H23 lung, in the assay on OVCAR-3 ovarian, with OVCAR-5 ovarian and in the assay with OVCAR-8 ovarian was greater than 100 µM throughout. Also, the TGI in the assay on RXF 393 renal was greater than 100 µM; with SF-268 CNS it was 62.1 µM; in the assay with SF-295 CNS, greater than 100 µM; in the assay with SK-MEL-28 melanoma, greater than 100 µM; with SK-OV-3 ovarian, greater than 100 µM; in the assay with UACC-62 melanoma it was greater than 100 µM.

For `CNC(=O)CCCNC(=O)CCCCC(=O)N(C)C`, the TGI with 786-0 renal, with A549 NSCLC, with HCT-116 colon, in the assay on HOP-62 NSCLC, in the assay on K-562 leukemia and in the assay with MALME-3M melanoma was greater than 100 µM throughout. The TGI in the assay on NCI-H23 lung, in the assay with OVCAR-3 ovarian, in the assay on OVCAR-5 ovarian, with OVCAR-8 ovarian, in the assay on RXF 393 renal and with SF-268 CNS was greater than 100 µM each time. Also, the TGI in the assay on SF-295 CNS, in the assay with SK-MEL-28 melanoma, in the assay on SK-OV-3 ovarian and in the assay on UACC-62 melanoma was greater than 100 µM in each case.

Turning to `COc1ccc(/C=C2\CCC(C)c3c2nc(N)c(C#N)c3-c2ccc(OC)c(OC)c2)cc1OC` (stereo unspecified), the TGI was greater than 100 µM in the assay on 786-0 renal; greater than 100 µM with HCT-116 colon; greater than 100 µM in the assay with HCT-15 colon; 9.95 µM with HOP-62 NSCLC; greater than 100 µM in the assay on HS 578T breast; greater than 100 µM in the assay on K-562 leukemia. For the same compound, the TGI in the assay with MALME-3M melanoma, in the assay with NCI-H23 lung, with OVCAR-3 ovarian, with OVCAR-5 ovarian, in the assay with OVCAR-8 ovarian and in the assay with RXF 393 renal was greater than 100 µM each time. The TGI in the assay on SF-268 CNS, with SF-295 CNS, in the assay with SK-MEL-28 melanoma, in the assay with SK-OV-3 ovarian and with UACC-62 melanoma was greater than 100 µM each time.
